Laboratory results reported in ChEMBL document CHEMBL1177707 (J Med Chem, 2010).

Assays:
[1] = molecular target: Inosine-5'-monophosphate dehydrogenase 2 (Homo sapiens, UniProt P12268); assay: Inhibition of human IMPDH2
[2] = molecular target: Inosine-5'-monophosphate dehydrogenase 1 (Homo sapiens, UniProt P20839); assay: Inhibition of human IMPDH1
[3] = Inhibition of N-terminal His-tagged Mycobacterium tuberculosis H37Rv IMPDH; details: read-out: Ki(app)

Sequence of Inosine-5'-monophosphate dehydrogenase 1 (P20839 whole entry): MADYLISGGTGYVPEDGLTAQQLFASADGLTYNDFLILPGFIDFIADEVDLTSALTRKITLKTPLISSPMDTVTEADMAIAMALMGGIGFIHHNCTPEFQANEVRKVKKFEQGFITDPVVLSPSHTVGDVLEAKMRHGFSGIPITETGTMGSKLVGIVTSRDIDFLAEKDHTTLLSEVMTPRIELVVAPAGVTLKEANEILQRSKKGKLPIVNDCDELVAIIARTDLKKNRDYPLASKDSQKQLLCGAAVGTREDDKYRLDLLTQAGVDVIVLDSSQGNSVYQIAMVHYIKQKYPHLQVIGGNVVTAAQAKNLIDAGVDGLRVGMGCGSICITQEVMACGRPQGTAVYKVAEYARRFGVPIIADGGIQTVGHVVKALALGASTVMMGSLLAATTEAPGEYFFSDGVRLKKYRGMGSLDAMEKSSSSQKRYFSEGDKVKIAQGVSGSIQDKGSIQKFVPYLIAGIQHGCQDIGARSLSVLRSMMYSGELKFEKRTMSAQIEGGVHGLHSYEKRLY

SMILES | Ki ([2]; read-out: Ki) | Ki [3] | also measured
COc1c(C)c2c(c(O)c1CCNCc1cn(C[C@H]3O[C@@H](n4cnc5c(N)ncnc54)[C@H](O)[C@@H]3O)nn1)C(=O)OC2 | 14000 nM | > 100000 nM | Ki ([1]; read-out: Ki): 2200 nM
COc1c(C)c2c(c(O)c1C/C=C(\C)COP(=O)(O)CP(=O)(O)OC[C@H]1O[C@@H](n3cnc4c(N)ncnc43)[C@H](O)[C@@H]1O)C(=O)OC2 | – | > 100000 nM | Ki ([1]; read-out: Ki(app)): 380 nM; Ki ([2]; read-out: Ki(app)): 520 nM
C#Cc1nc(N)c2ncn([C@@H]3O[C@H](CNS(=O)(=O)CS(=O)(=O)NCCc4c(O)c5c(c(C)c4OC)COC5=O)[C@@H](O)[C@H]3O)c2n1 | – | > 100000 nM | –
CCc1nc(N)c2ncn([C@@H]3O[C@H](CNS(=O)(=O)CS(=O)(=O)NCCc4c(O)c5c(c(C)c4OC)COC5=O)[C@@H](O)[C@H]3O)c2n1 | – | > 100000 nM | –
COc1c(C)c2c(c(O)c1CCNS(=O)(=O)CS(=O)(=O)NC[C@H]1O[C@@H](n3cnc4c(N)nc(-c5ccccc5)nc43)[C@H](O)[C@@H]1O)C(=O)OC2 | – | > 100000 nM | –
COc1c(C)c2c(c(O)c1CCn1cc(COC[C@H]3O[C@@H](n4cnc5c(N)ncnc54)[C@H](O)[C@@H]3O)nn1)C(=O)OC2 | 1500 nM | > 100000 nM | Ki ([1]; read-out: Ki): 200 nM
COc1c(C)c2c(c(O)c1CCOP(=O)(O)CP(=O)(O)OC[C@H]1O[C@@H](n3cnc4c(N)nc(-c5ccccc5)nc43)[C@H](O)[C@@H]1O)C(=O)OC2 | – | > 100000 nM | –
COc1c(C)c2c(c(O)c1C/C=C(\C)Cn1cc(COC[C@H]3O[C@@H](n4cnc5c(N)ncnc54)[C@H](O)[C@@H]3O)nn1)C(=O)OC2 | 70 nM | – | –
COc1c(C)c2c(c(O)c1C/C=C(\C)CCC(=O)O)C(=O)OC2 [MYCOPHENOLIC ACID] | – | 62000 nM | –
